# Laboratory results as given in ChEMBL document CHEMBL3867432, “Autophagy regulates Selumetinib (AZD6244) induced-apoptosis in colorectal cancer cells” (Eur J Med Chem, 2016).
# Activity calls are given as the source filed them. The rule behind the calls is not given here.
# Legend:
# [1] = tested on: SW480; assay: Induction of apoptosis in human SW480 cells assessed as accumulation at subG1 phase at 10 uM after 48 hrs in presence of pan caspase inhibitor zVAD by Annexin-V-FITC/propidium iodide staining based flow cytometry (reference value: 15.3%); format: functional
# [2] = Cell cycle arrest in human SW480 cells assessed as accumulation at subG1 phase at 1 uM after 48 hrs by propidium iodide staining based flow cytometry (reference value: 5.7%); format: functional
# [3] = Cell cycle arrest in human SW480 cells assessed as accumulation at G1 phase at 1 uM after 48 hrs by propidium iodide staining based flow cytometry (reference value: 61.2%); format: functional
# [4] = tested on: SW480; assay: Induction of apoptosis in human SW480 cells assessed as apoptotic cells at 10 uM after 48 hrs in presence of autophagy inhibitor bafilomycin A1 by annexin V-FITC/propidium iodide staining based flow cytometry (reference value: 9.6 to 15.3%); format: functional
# [5] = tested on: SW480; assay: Induction of apoptosis in human SW480 cells assessed as apoptotic cells at 10 uM after 48 hrs in presence of autophagy inhibitor 3-MA by annexin V-FITC/propidium iodide staining based flow cytometry (reference value: 9.6 to 15.3%); format: functional
# [6] = tested on: SW480; assay: Induction of apoptosis in human SW480 cells assessed as apoptotic cells at 10 uM after 48 hrs by annexin V-FITC/propidium iodide staining based flow cytometry (reference value: 9.6 to 15.3%); format: functional
# [7] = tested on: HT-29; assay: Induction of apoptosis in human HT-29 cells assessed as apoptotic cells at 10 uM after 48 hrs by annexin V-FITC/propidium iodide staining based flow cytometry (reference value: 15.7 to 19.6%); format: functional
# [8] = tested on: SW480; assay: Induction of apoptosis in human SW480 cells assessed as apoptotic cells at 1 uM after 48 hrs by annexin V-FITC/propidium iodide staining based flow cytometry (reference value: 10.6%); format: functional
# [9] = tested on: SW480; assay: […] of autophagy in human SW480 cells expressing mCherry-eGFPeLC3 assessed as accumulation of autophagosomes at 10 uM after 2 hrs by confocal microscopic analysis; format: functional, cell-based
# [10] = tested on: SW480; assay: Induction of apoptosis in human SW480 cells assessed as increase in LC3-2 level at 10 uM after 48 hrs in presence of autophagy inhibitor bafilomycin A1 by Western blot analysis; format: functional, cell-based
# [11] = tested on: HT-29; assay: Induction of apoptosis in human HT-29 cells assessed as apoptotic cells at 10 uM after 48 hrs in presence of autophagy inhibitor CQ by annexin V-FITC/propidium iodide staining based flow cytometry (reference value: 15.7 to 19.6%); format: functional
# [12] = tested on: SW480; assay: Induction of apoptosis in human SW480 cells assessed as necrotic cells at 10 uM after 48 hrs by annexin V-FITC/propidium iodide staining based flow cytometry (reference value: 2.8%); format: functional
# [13] = tested on: HT-29; assay: Induction of apoptosis in human HT-29 cells assessed as apoptotic cells at 10 uM after 48 hrs in presence of autophagy inhibitor bafilomycin A1 by annexin V-FITC/propidium iodide staining based flow cytometry (reference value: 15.7 to 19.6%); format: functional
# [14] = Cell cycle arrest in human SW480 cells assessed as accumulation at subG1 phase at 3 uM after 48 hrs by propidium iodide staining based flow cytometry (reference value: 5.7%); format: functional
# [15] = tested on: SW480; assay: Induction of autophagy in human SW480 cells assessed as increase in LC3-2 level at 10 uM after 1 to 4 hrs by Western blot analysis; format: functional, cell-based
# [16] = tested on: SW480; assay: Induction of apoptosis in human SW480 cells assessed as accumulation at subG1 phase at 10 uM after 48 hrs in presence of autophagy inducer rapamycin by propidium iodide staining based flow cytometry (reference value: 5.7 to 15.3%); format: functional
# [17] = tested on: SW480; assay: Induction of apoptosis in human SW480 cells assessed as necrotic cells at 3 uM after 48 hrs by annexin V-FITC/propidium iodide staining based flow cytometry (reference value: 2.8%); format: functional
# [18] = tested on: SW480; assay: Induction of apoptosis in human SW480 cells assessed as necrotic cells at 1 uM after 48 hrs by annexin V-FITC/propidium iodide staining based flow cytometry (reference value: 2.8%); format: functional
# [19] = tested on: SW480; assay: Induction of apoptosis in human SW480 cells assessed as apoptotic cells at 10 uM after 48 hrs in presence of autophagy inducer rapamycin by annexin V-FITC/propidium iodide staining based flow cytometry (reference value: 9.6 to 15.3%); format: functional
# [20] = Antiproliferative activity against human SW480 cells after 72 hrs by MTT assay; format: functional, cell-based; details: SW480, 72 h
# [21] = Cell cycle arrest in human SW480 cells assessed as accumulation at G1 phase at 10 uM after 48 hrs by propidium iodide staining based flow cytometry (reference value: 61.2%); format: functional
# [22] = Cell cycle arrest in human SW480 cells after 48 hrs by propidium iodide staining based flow cytometry; format: functional
# [23] = tested on: SW480; assay: Induction of apoptosis in human SW480 cells assessed as apoptotic cells at 3 uM after 48 hrs by annexin V-FITC/propidium iodide staining based flow cytometry (reference value: 10.6%); format: functional
# [24] = tested on: SW480; assay: Induction of apoptosis in human SW480 cells after 48 hrs by annexin V-FITC/propidium iodide staining based flow cytometry; format: functional, cell-based
# [25] = tested on: SW480; assay: Induction of apoptosis in beclin-1 silenced human SW480 cells assessed as apoptotic cells at 10 uM after 48 hrs by annexin V-FITC/propidium iodide staining based flow cytometry (reference value: 14.4%); format: functional
# [26] = Cell cycle arrest in human SW480 cells assessed as accumulation at subG1 phase at 10 uM after 48 hrs by propidium iodide staining based flow cytometry (reference value: 5.7 to 15.3%); format: functional
# [27] = tested on: SW480; assay: Induction of apoptosis in human SW480 cells assessed as apoptotic cells at 10 uM after 48 hrs in presence of autophagy inhibitor CQ by annexin V-FITC/propidium iodide staining based flow cytometry (reference value: 9.6 to 15.3%); format: functional
# [28] = Cell cycle arrest in human SW480 cells assessed as accumulation at G1 phase at 3 uM after 48 hrs by propidium iodide staining based flow cytometry (reference value: 61.2%); format: functional
smiles,measurement,setting,value
Cn1cnc2c(F)c(Nc3ccc(Br)cc3Cl)c(C(=O)NOCCO)cc21 [SELUMETINIB],Activity,[1],24.1%
same,Activity,[2],10%
same,Activity,[3],75%
same,Activity,[4],64.9%
same,Activity,[5],41.1%
same,Activity,[6],29 - 42.9%
same,Activity,[7],43.9 - 51.2%
same,Activity,[8],17.4%
same,inhibition,[9],Active
same,Activity,[10],Active
same,Activity,[11],58.6%
same,Activity,[12],5.3%
same,Activity,[13],68.3%
same,Activity,[14],17.8%
same,Activity,[15],Active
same,Activity,[16],11.9%
same,Activity,[17],4.9%
same,Activity,[18],4.2%
same,Activity,[19],21.4%
same,IC50,[20],422 nM
same,Activity,[21],58%
same,Activity,[22],Dose-dependent effect
same,Activity,[23],23.1%
same,Activity,[24],Dose-dependent effect
same,Activity,[25],53.3%
same,Activity,[26],23.7 to 42.9%
same,Activity,[27],55.4%
same,Activity,[28],59.6%
